Data: PubChem BioAssay (NCI)
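Interpolation was linear, between the two tested concentrations surrounding the appropriate level; five concentrations were tested over 48 hours in 96-well plates. GI50 = concentration required for 50% inhibition of growth. TGI marks complete inhibition of growth.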

What was measured:
Assay in all cases: growth of human tumour cells (NCI), 48 h; in the data active = GI50 below about 0.43 µM; inactive = the rest
[1] = system: HCT-116 colon
[2] = system: NCI-H23 lung
[3] = system: LOX IMVI melanoma
[4] = system: SK-MEL-28 melanoma
[5] = system: EKVX NSCLC
[6] = system: SF-295 CNS
[7] = system: UO-31 renal
[8] = system: SF-539 CNS
[9] = system: HOP-62 NSCLC
[10] = system: M14 melanoma
[11] = system: MCF7 breast
[12] = system: RPMI-8226 leukemia
[13] = system: SR leukemia
[14] = system: OVCAR-3 ovarian
[15] = system: HCT-15 colon
[16] = system: COLO 205 colon
[17] = system: MDA-MB-435
[18] = system: SW-620 colon
[19] = system: SNB-19 CNS
[20] = system: MOLT-4 leukemia
[21] = system: HS 578T breast
[22] = system: CCRF-CEM leukemia
[23] = system: A498 renal
[24] = system: U251 CNS
[25] = system: NCI-H460 lung
[26] = system: SN12C renal
[27] = system: NCI/ADR-RES ovarian
[28] = system: RXF 393 renal
[29] = system: ACHN renal
[30] = system: PC-3 prostate
[31] = system: MALME-3M melanoma
[32] = system: KM12 colon
[33] = system: OVCAR-5 ovarian
[34] = system: UACC-257 melanoma
[35] = system: DU-145 prostate
[36] = system: UACC-62 melanoma
[37] = system: TK-10 renal
[38] = system: BT-549 breast
[39] = system: A549 NSCLC
[40] = system: MDA-MB-231 breast
[41] = system: SF-268 CNS
[42] = system: SK-OV-3 ovarian
[43] = system: T-47D breast
[44] = system: NCI-H522 lung
[45] = system: SK-MEL-2 melanoma
[46] = system: 786-0 renal
[47] = system: HT29 colon
[48] = system: SK-MEL-5 melanoma
[49] = system: CAKI-1 renal
[50] = system: K-562 leukemia
[51] = system: OVCAR-4 ovarian
[52] = system: HOP-92 NSCLC
[53] = system: OVCAR-8 ovarian
[54] = system: NCI-H226 lung
[55] = system: HL-60(TB) leukemia
[56] = system: HCC-2998 colon
[57] = system: SNB-75 CNS
[58] = system: IGROV1 ovarian

Cc1ccc(N=C/C=C(\Nc2ccc(C)cc2)c2ccc(Cl)cc2)cc1
34.1 µM: TGI [23]
85.8 µM: TGI [7]
70.6 µM: TGI [19]
33.5 µM: TGI [22]
59.2 µM: TGI [28]
70 µM: TGI [44]
52 µM: TGI [18]
36.2 µM: TGI [5]
46.7 µM: TGI [32]
35.9 µM: TGI [9]
94.9 µM: TGI [33]
60.6 µM: TGI [25]
48.4 µM: TGI [31]
61.1 µM: TGI [39]
22.5 µM: TGI [10]
22.1 µM: TGI [27]
26.6 µM: TGI [8]
33.3 µM: TGI [26]
12 µM: TGI [17]
42.2 µM: TGI [37]
33.1 µM: TGI [52]
29.2 µM: TGI [38]
21.9 µM: TGI [6]
40.2 µM: TGI [41]
inactive: GI50 [1] 5.54 µM | GI50 [2] 11 µM | GI50 [3] 5.58 µM | GI50 [4] 4.99 µM | GI50 [5] 14 µM | GI50 [6] 5.55 µM | GI50 [7] 21.4 µM | GI50 [8] 6.1 µM | GI50 [9] 14.9 µM | GI50 [10] 4.96 µM | GI50 [11] 5.77 µM | GI50 [12] 3.53 µM | GI50 [13] 2.32 µM | GI50 [14] 8.06 µM | GI50 [15] 5.77 µM | GI50 [16] 7.11 µM | GI50 [17] 2.82 µM | GI50 [18] 6.44 µM | GI50 [19] 17.3 µM | GI50 [20] 4.25 µM | GI50 [21] 15.3 µM | GI50 [22] 1.95 µM | GI50 [23] 16.8 µM | GI50 [24] 7.39 µM | GI50 [25] 6.38 µM | GI50 [26] 11.7 µM | GI50 [27] 5.1 µM | GI50 [28] 17.6 µM | GI50 [29] 14.5 µM | GI50 [30] 26.8 µM | GI50 [31] 9.27 µM | GI50 [32] 5.36 µM | GI50 [33] 24.4 µM | GI50 [34] 15.8 µM | GI50 [35] 15.6 µM | GI50 [36] 7.31 µM | GI50 [37] 12.3 µM | GI50 [38] 11.2 µM | GI50 [39] 10.5 µM | GI50 [40] 11.2 µM | GI50 [41] 13.4 µM | GI50 [42] 21 µM | GI50 [43] > 100 µM | GI50 [44] 21.9 µM | GI50 [45] 29.9 µM | GI50 [46] 11.1 µM | GI50 [47] 4 µM | GI50 [48] 6 µM | GI50 [49] 8.52 µM | GI50 [50] 4.75 µM | GI50 [51] 47.4 µM | GI50 [52] 14 µM | GI50 [53] 14.6 µM
41.7 µM: TGI [21]
20.7 µM: TGI [48]
69.6 µM: TGI [11]
> 100 µM: TGI [3] | TGI [12] | TGI [13] | TGI [15] | TGI [16] | TGI [20] | TGI [29] | TGI [30] | TGI [42] | TGI [43] | TGI [45] | TGI [47] | TGI [50] | TGI [51]
38.8 µM: TGI [34]
39.8 µM: TGI [36]
38.4 µM: TGI [35]
40.4 µM: TGI [49]
27.1 µM: TGI [4]
53.6 µM: TGI [53]
32.3 µM: TGI [2]
46.8 µM: TGI [1]
50.1 µM: TGI [24]
77.9 µM: TGI [14]
28.7 µM: TGI [46]
46.6 µM: TGI [40]

C=CCCCCC/C=C\[C@@H](O)C#CC#C/C=C/CO
37.5 µM: TGI [50]
27.8 µM: TGI [55]
98.7 µM: TGI [44]
68.9 µM: TGI [53]
57.6 µM: TGI [54]
32.1 µM: TGI [3]
43.8 µM: TGI [20]
inactive: GI50 [1] 45.7 µM | GI50 [2] 43.6 µM | GI50 [3] 17.2 µM | GI50 [4] 0.867 µM | GI50 [5] > 100 µM | GI50 [6] > 100 µM | GI50 [7] > 100 µM | GI50 [8] > 100 µM | GI50 [9] > 100 µM | GI50 [10] > 100 µM | GI50 [11] 32.7 µM | GI50 [12] 16.3 µM | GI50 [14] 41.7 µM | GI50 [15] > 100 µM | GI50 [16] > 100 µM | GI50 [17] 68.8 µM | GI50 [54] 25.5 µM | GI50 [18] 48.2 µM | GI50 [19] > 100 µM | GI50 [20] 18.3 µM | GI50 [21] > 100 µM | GI50 [23] > 100 µM | GI50 [24] 38.7 µM | GI50 [55] 11.2 µM | GI50 [25] > 100 µM | GI50 [26] 57.5 µM | GI50 [27] > 100 µM | GI50 [28] > 100 µM | GI50 [29] > 100 µM | GI50 [30] 28 µM | GI50 [31] > 100 µM | GI50 [32] 77.5 µM | GI50 [33] > 100 µM | GI50 [34] > 100 µM | GI50 [35] > 100 µM | GI50 [36] > 100 µM | GI50 [37] > 100 µM | GI50 [38] 49.9 µM | GI50 [39] > 100 µM | GI50 [40] 40 µM | GI50 [41] 39 µM | GI50 [42] > 100 µM | GI50 [56] > 100 µM | GI50 [43] > 100 µM | GI50 [44] 26 µM | GI50 [45] > 100 µM | GI50 [46] > 100 µM | GI50 [47] > 100 µM | GI50 [48] > 100 µM | GI50 [49] > 100 µM | GI50 [50] 18.5 µM | GI50 [51] > 100 µM | GI50 [52] > 100 µM | GI50 [53] 25.1 µM | GI50 [57] 0.536 µM | GI50 [58] 23.5 µM
38.4 µM: TGI [12]
> 100 µM: TGI [1] | TGI [2] | TGI [4] | TGI [5] | TGI [6] | TGI [7] | TGI [8] | TGI [9] | TGI [10] | TGI [11] | TGI [14] | TGI [15] | TGI [16] | TGI [17] | TGI [18] | TGI [19] | TGI [21] | TGI [23] | TGI [24] | TGI [25] | TGI [26] | TGI [27] | TGI [28] | TGI [29] | TGI [30] | TGI [31] | TGI [32] | TGI [33] | TGI [34] | TGI [35] | TGI [36] | TGI [37] | TGI [38] | TGI [39] | TGI [40] | TGI [41] | TGI [42] | TGI [56] | TGI [43] | TGI [45] | TGI [46] | TGI [47] | TGI [48] | TGI [49] | TGI [51] | TGI [52] | TGI [57] | TGI [58]
